Laboratory results: the Kinase Knowledgebase extract (Sharma et al. 2016)

Tests used:
Test in all cases: Enzyme Assay
ROCK2 (human) = ROCK2 (human) (UniProt O75116)
CDK2 (human) = CDK2 (human) (UniProt P24941)
MAPK14 (human) = MAPK14 (human) (UniProt Q16539)
Sequence of MAPK14 (human) (Q16539 whole entry, looked up): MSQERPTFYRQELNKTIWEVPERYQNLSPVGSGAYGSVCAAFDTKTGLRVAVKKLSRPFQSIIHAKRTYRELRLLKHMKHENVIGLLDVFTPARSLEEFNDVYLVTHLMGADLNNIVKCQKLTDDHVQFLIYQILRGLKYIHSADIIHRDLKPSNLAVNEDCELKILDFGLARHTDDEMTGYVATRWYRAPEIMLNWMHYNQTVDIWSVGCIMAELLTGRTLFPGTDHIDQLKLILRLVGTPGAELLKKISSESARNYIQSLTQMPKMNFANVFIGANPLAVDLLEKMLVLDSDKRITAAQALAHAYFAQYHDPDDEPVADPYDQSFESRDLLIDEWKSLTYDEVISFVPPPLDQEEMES

Sequence of ROCK2 (human) (O75116 whole entry, looked up): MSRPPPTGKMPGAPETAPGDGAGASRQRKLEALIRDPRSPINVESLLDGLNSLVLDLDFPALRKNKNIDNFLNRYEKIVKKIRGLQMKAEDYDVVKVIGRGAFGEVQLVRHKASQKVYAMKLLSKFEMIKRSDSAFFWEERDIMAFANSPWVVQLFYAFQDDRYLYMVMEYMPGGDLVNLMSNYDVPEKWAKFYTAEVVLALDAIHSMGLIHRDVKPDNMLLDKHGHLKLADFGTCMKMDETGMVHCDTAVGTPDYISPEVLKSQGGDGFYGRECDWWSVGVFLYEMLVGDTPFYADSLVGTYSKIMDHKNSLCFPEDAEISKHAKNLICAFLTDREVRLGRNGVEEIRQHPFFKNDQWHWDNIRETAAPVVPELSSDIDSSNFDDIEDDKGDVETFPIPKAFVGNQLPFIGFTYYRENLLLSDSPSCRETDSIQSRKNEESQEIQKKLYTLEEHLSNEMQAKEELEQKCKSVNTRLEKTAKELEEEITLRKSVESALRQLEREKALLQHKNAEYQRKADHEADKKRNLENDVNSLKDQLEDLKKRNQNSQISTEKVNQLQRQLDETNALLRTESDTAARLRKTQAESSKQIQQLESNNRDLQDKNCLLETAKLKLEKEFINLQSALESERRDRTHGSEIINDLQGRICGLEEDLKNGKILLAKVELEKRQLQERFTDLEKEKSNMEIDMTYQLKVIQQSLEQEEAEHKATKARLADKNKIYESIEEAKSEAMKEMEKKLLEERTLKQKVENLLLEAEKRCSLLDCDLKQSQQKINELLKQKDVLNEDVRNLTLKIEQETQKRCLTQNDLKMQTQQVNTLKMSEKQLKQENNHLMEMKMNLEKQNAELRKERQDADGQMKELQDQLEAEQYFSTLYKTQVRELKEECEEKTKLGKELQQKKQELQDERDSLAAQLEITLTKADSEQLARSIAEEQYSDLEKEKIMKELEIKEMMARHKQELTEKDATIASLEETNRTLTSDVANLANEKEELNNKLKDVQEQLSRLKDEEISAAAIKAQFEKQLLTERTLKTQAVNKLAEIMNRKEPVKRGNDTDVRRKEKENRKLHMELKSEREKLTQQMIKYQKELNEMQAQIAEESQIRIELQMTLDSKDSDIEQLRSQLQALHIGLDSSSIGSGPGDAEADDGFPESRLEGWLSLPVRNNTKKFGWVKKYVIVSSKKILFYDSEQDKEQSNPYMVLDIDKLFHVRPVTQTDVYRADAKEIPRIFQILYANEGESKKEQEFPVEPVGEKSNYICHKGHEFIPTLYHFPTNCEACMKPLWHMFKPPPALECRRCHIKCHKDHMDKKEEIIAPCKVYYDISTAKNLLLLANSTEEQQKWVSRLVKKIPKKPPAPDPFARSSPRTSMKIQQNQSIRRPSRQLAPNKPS

| SMILES | Ki (ROCK2 (human)) | Ki (CDK2 (human)) | Ki (MAPK14 (human)) |
| --- | --- | --- | --- |
| COCC(C)Nc1cc(-c2c[nH]c3ncccc23)cc(Cl)n1 (centres undefined) | 7.94 nM | 158 nM |  |
| Cc1cc(=O)[nH]c2[nH]nc(-c3cccc(C(F)(F)F)c3)c12 |  |  | 398 nM |
| NC(=O)c1cc(-c2ccnc(N)n2)[nH]c1-c1ccc(Cl)cc1Cl | 316 nM |  |  |
| O=C(Nc1n[nH]c2ccc(-c3cn(Cc4ccccc4)nn3)cc12)c1cc(F)ccc1F | > 5010 nM | 25.1 nM |  |
| CS(=O)(=O)Nc1ccccc1-c1ccc2c(c1)Nc1ccccc1NC2=O |  | 6310 nM |  |
| c1ccc(-c2ncc3ccccn23)cc1 |  |  | 50100 nM |
| NC(=O)Cn1cc(-c2cc(-c3cc4ccccc4s3)c3[nH]ncc3c2)c2nc(N)ncc21 | 316 nM | 398 nM |  |
| Nc1noc2cccc(-c3cccc(O)c3)c12 | 251 nM |  |  |
| CCCCNc1c(-c2ccc3[nH]ncc3c2)nc2ncccn12 | 63.1 nM | 398 nM |  |
| NC(=O)c1ccc(Nc2ncnc3[nH]cc(-c4ccccc4)c23)cc1 | 251 nM | 501 nM |  |
| Cn1cncc1C(OCc1c(-c2ccc(OC(F)(F)F)cc2)cc(C#N)c(=O)n1C)c1ccc(C#N)cc1 (centres undefined) | > 7940 nM |  |  |
| Nc1ccc2cc(NCCc3ccccc3)cc(Nc3ncccn3)c2n1 |  |  | 2510 nM |
| CC(C)(C)Oc1cc(-c2ccncc2)cc2[nH]nc(N)c12 | 50.1 nM | 126 nM |  |
| O=C1c2ccccc2-c2n[nH]c3cccc1c23 | 3160 nM | 79.4 nM |  |
| CCC(=O)Nc1ccc(C(=O)N2CCNCC2)c(O)c1 |  |  | 1000 nM |
| COc1ccc(C2=NNc3cccc4c(OC)ccc2c34)cc1OC |  |  | 501 nM |
| CCOC(=O)c1c[nH]n2c(=O)cc(-c3ccncc3)nc12 | 2000 nM |  |  |
| Cc1ccc2nccc(NC(=O)Nc3cccc(C(F)(F)F)n3)c2c1 | > 6310 nM | 79.4 nM |  |
| Nc1n[nH]c2ccc(-c3nnn(Cc4ccccc4)c3C3CC3)cc12 | 20 nM | 79.4 nM |  |
| Cc1c(C=O)c(O)n2c(nc3ccccc32)c1C#N | > 7940 nM |  |  |
| CCNC(=O)c1[nH]nc(-c2cc(Cl)c(O)cc2O)c1-c1ccc(OC)cc1 | 2510 nM | 6310 nM |  |
| Cn1cc(-c2ccccc2)c2nc(-c3ccncc3)cc(=O)n21 | 3160 nM |  |  |
| CC(C)(C)c1cc(NC(=O)C(=O)c2cccc3ccccc23)n(-c2ccc(OCC(=O)NCCO)cc2)n1 |  |  | 631 nM |
| CCn1c(-c2nonc2N)nc2cnc(Oc3cccc(NC(=O)c4ccc(OCCN5CCOCC5)cc4)c3)cc21 |  | 794 nM |  |
| Cc1ccc(Nc2nccc(Nc3ccccc3C(=O)O)n2)cc1F | > 7940 nM | 398 nM |  |
| CC(C)(CO)CNc1nccc(-c2c(-c3ccc(F)cc3)nc3c(CC4CC4)nccn23)n1 | > 7940 nM |  |  |

| SMILES | Ki (ROCK2 (human)) | Ki (CDK2 (human)) | Ki (MAPK14 (human)) |
| --- | --- | --- | --- |
| COCCN(CCOC)c1cc(-c2c[nH]c3ncccc23)cc(Cl)n1 | 39.8 nM | 2000 nM |  |
| Cc1n[nH]c2ccc(-c3cncc(OCCN(C)S(C)(=O)=O)c3)cc12 | 100 nM | 501 nM |  |
| CNCCOc1cncc(-c2ccc3[nH]nc(C)c3c2)c1 | 20 nM | 501 nM |  |
| Cc1cc(=O)[nH]nc1-c1ccc(NC(=O)Nc2cc(C(F)(F)F)ccc2F)c(Cl)c1 |  |  | 100 nM |
| NC(=O)c1ccc2c(ccn2-c2cccc(Cl)c2)c1 | 2510 nM |  |  |
| NC(=O)c1ccc(-c2ccncc2)cc1NCc1cccc(F)c1 | 5010 nM | 3160 nM |  |
| O=C1CN=C(c2cccc(Cl)c2)c2c(sc3c2CCCC3)N1 |  | 7940 nM |  |
| CCCn1c(=O)c2[nH]c(-c3cnn(Cc4cccc(C(F)(F)F)c4)c3)nc2n(CC)c1=O |  | 5010 nM |  |
| CN(C)c1cc(-c2ccncc2)cc2[nH]nc(N)c12 | 79.4 nM | 631 nM |  |
| c1cnc2[nH]cc(-c3ccnc(NCC4CCCCC4)n3)c2c1 | 6.31 nM | 3.98 nM |  |
| O=C1Nc2ccccc2Nc2cc(-c3ccncc3Cl)ccc21 | 631 nM | 501 nM |  |
| CCCCC(=O)Nc1cc(-c2c[nH]c3ncccc23)cc(Cl)n1 | 158 nM |  |  |
| CN(C)CCCOc1cc(-c2ccncc2)cc2[nH]nc(N)c12 | 251 nM | 3160 nM |  |
| Oc1ccc(-c2nc(-c3ccc(F)cc3)c(-c3ccncc3)[nH]2)cc1 | > 3980 nM |  |  |
| NC1CCCCC1Nc1nccc(Nc2ccccc2C(=O)O)n1 (centres undefined) | > 7940 nM |  |  |
| Cc1sc2[nH]c(=O)n3nc(-c4ccncc4)nc3c2c1C | 3980 nM |  |  |
| Fc1cccc(-c2c[nH]c3ncccc23)c1 | 316 nM | 1260 nM |  |
| FC(F)(F)c1ccccc1CNc1nccc(-c2c[nH]c3ncccc23)n1 |  | 5.01 nM |  |
| CC(C)(C)c1cc(NC(=O)c2cc3ccccc3s2)n(-c2cccc(OCC(=O)O)c2)n1 |  |  | 794 nM |
| c1ccc(Cn2cc(-c3ccc4[nH]nc(-c5ccccc5)c4c3)nn2)cc1 | 63.1 nM | 100 nM |  |
| c1ccc(Cn2nnc(-c3ccc4[nH]ncc4c3)c2-c2ccccc2)cc1 |  | 63.1 nM |  |
| O=C1Nc2ccccc2Nc2cc(-c3ccncc3)ccc21 | 316 nM | 1000 nM |  |
| COCCNc1cc(-c2c[nH]c3ncccc23)cc(Cl)n1 | 5.01 nM | 251 nM |  |
| O=C(O)c1ccccc1Nc1ncnc(Nc2ccc3cn[nH]c3c2)n1 | > 5010 nM | 316 nM |  |
| COc1ccccc1C(=O)Nc1n[nH]c2ccc(-c3cn(Cc4ccccc4)nn3)cc12 | > 7940 nM | 251 nM |  |
| NC1CCCCC1Nc1nccc(-c2c[nH]c3ncccc23)n1 (centres undefined) |  | 12.6 nM |  |

| SMILES | Ki (ROCK2 (human)) | Ki (CDK2 (human)) | Ki (MAPK14 (human)) |
| --- | --- | --- | --- |
| CN(c1ccccc1-c1ccc2c(c1)Nc1ccccc1NC2=O)S(C)(=O)=O |  | 2000 nM |  |
| Cc1cc(=O)n2[nH]cc(C(=O)NCc3ccccc3)c2n1 | 2510 nM |  |  |
| Cc1cccc(NC(=O)Nc2ccc3c(c2)CCc2sc4ncnc(N)c4c2-3)c1 | 79.4 nM |  |  |
| Clc1cc(NC2CCCCC2)nc(-c2c[nH]c3ncccc23)n1 | > 316 nM |  |  |
| O=C(NCc1ccccc1)c1c[nH]n2c(=O)cc(-c3ccncc3)nc12 | > 7940 nM | 158 nM |  |
| O=c1cc(-c2cccc(F)c2)[nH]c2c(-c3ccc(F)cc3)cnn12 | > 7940 nM |  |  |
| CN1CCN(c2nc(C3=C(c4c[nH]c5ccccc45)C(=O)NC3=O)c3ccccc3n2)CC1 | > 7940 nM | 126 nM |  |
| O=C(Nc1ccccc1)Nc1nccs1 |  | 20000 nM |  |
| CN(C)c1ccc(-c2c(-c3ccc4[nH]nc(N)c4c3)nnn2Cc2ccccc2)cc1 | 20 nM | 126 nM |  |
| Nc1ncnc2c1c(-c1cnc3[nH]ccc3c1)nn2C1CCCC1 | 39.8 nM |  |  |
| Cc1ccccc1-c1c(-c2ccc3[nH]nc(C)c3c2)nnn1Cc1ccccc1 |  | 3.98 nM |  |
| O=C(O)c1ccccc1Nc1ccnc(NCc2cccc(O)c2)n1 | > 7940 nM |  |  |
| Fc1ccc2c(c1)-c1n[nH]cc1CS2 |  | 20000 nM |  |
| CS(=O)(=O)N(Cc1ccc2[nH]c(=O)c3cccn3c2c1)C1CC1 | > 7940 nM |  |  |
| Nc1n[nH]c2ccc(-c3cc(Cc4ccccc4)no3)cc12 | 25.1 nM | 200 nM |  |
| O=c1cc(-c2ccncc2)nc(NCc2cc(F)cc(F)c2)[nH]1 | 794 nM | 794 nM |  |
| O=C1NC(=O)C(c2c[nH]c3ccccc23)=C1c1nc(N2CCNCC2)nc2ccccc12 | > 3980 nM |  |  |
| CC(C)(CO)CCCNc1cc(-c2c[nH]c3ncccc23)cc(Cl)n1 | 10 nM | 100 nM |  |
| NCCCn1cc(-c2cc(-c3cc4ccccc4s3)c3[nH]ncc3c2)c2nc(N)ncc21 | 63.1 nM | 12.6 nM |  |
| O=C(Nc1cccc(C(F)(F)F)n1)Nc1ccnc2ccc(F)cc12 | > 3980 nM |  |  |
| Clc1cc(-c2c[nH]c3ncccc23)nc(NC2CCCCC2)n1 | 126 nM | 200 nM |  |
| c1ccc(Cn2cc(-c3ccc4[nH]nc(-c5cn(Cc6ccccc6)nn5)c4c3)nn2)cc1 | 126 nM | 5.01 nM |  |
| Cc1cccc(CNc2cc(-c3c[nH]c4ncccc34)ncn2)c1 | 12.6 nM | 39.8 nM |  |
| C=CCNc1cc(-c2c[nH]c3ncccc23)cc(Cl)n1 | 12.6 nM | 100 nM |  |
| Cc1cc(Nc2cc(N3CCN(C)CC3)nc(Sc3ccc(NC(=O)C4CC4)cc3)n2)[nH]n1 | > 3980 nM |  |  |
| Cc1n[nH]c2ccc(-c3cncc(OCCNS(C)(=O)=O)c3)cc12 | 158 nM | 316 nM |  |

| SMILES | Ki (ROCK2 (human)) | Ki (CDK2 (human)) | Ki (MAPK14 (human)) |
| --- | --- | --- | --- |
| O=[N+]([O-])c1cccc(-c2nnc3ccc(N4CCCCC4)nn23)c1 | > 7940 nM | 631 nM |  |
| CCOC(=O)c1cn(-c2ccc(O)cc2C)c2cc(-c3ccncc3)ccc2c1=O | 31.6 nM | 3980 nM |  |
| Cc1cccc(CNc2cc(-c3c[nH]c4ncccc34)cc(Cl)n2)c1C | 31.6 nM | 200 nM |  |
| NC(=O)c1ccc(-c2ccnc(N)n2)cc1N1CCCCC1 | 1580 nM | 1260 nM |  |
| CN(C)C1CCC(Nc2nc(Cl)cc(-c3c[nH]c4ncccc34)n2)CC1 (centres undefined) | 2.51 nM | 25.1 nM |  |
| CN(Cc1ccccc1)c1cc(-c2c[nH]c3ncccc23)cc(Cl)n1 | 20 nM | 31.6 nM |  |
| CCOC(=O)c1c(NC(=O)C2C(C)(C)C2(C)C)sc2cnccc12 |  | 1000 nM |  |
| NNc1cc(N2CCOCC2)nc(OCCc2ccccn2)n1 | > 5010 nM |  |  |
| CC(C)(O)CNc1cc(-c2c[nH]c3ncccc23)cc(Cl)n1 | 15.8 nM | 251 nM |  |
| CCCCNc1cc(-c2ccncc2)cc2[nH]nc(N)c12 | 63.1 nM | 200 nM |  |
| COc1cc2c(cc1F)C(c1ccccc1Cl)=Nc1c(n[nH]c1C)N2 | > 7940 nM |  |  |
| O=c1cc(-c2ccc(F)cc2)[nH]c2c(-c3ccc(F)cc3)cnn12 | > 7940 nM |  |  |
| N#Cc1ccc2[nH]c(O)c(-c3ccc(CN4CCOCC4)cn3)c2c1 | > 6310 nM | 1000 nM |  |
| OCCCCNc1cc(-c2c[nH]c3ncccc23)cc(Cl)n1 | 15.8 nM | 126 nM |  |
| c1ccc(-c2n[nH]cc2-c2ccncc2)cc1 |  | 12600 nM |  |
| COc1ccc(C(=O)Nc2n[nH]c3ccc(-c4cn(Cc5ccccc5)nn4)cc23)cc1OC | 794 nM | 12.6 nM |  |
| O=C1Nc2ccccc2Nc2cc(-c3ccncc3F)ccc21 | 126 nM | 398 nM |  |
| CCCCOc1cc(-c2ccncc2)cc2[nH]nc(N)c12 | 126 nM | 1000 nM |  |
| NC(=O)c1ccc(-c2nc(-c3ccc4c(c3)OCO4)c(-c3ccccn3)[nH]2)cc1 | > 3980 nM |  |  |
| NC(=O)c1ccccc1Nc1nc(Nc2ccccc2)ncc1C(F)(F)F | 501 nM |  |  |
| CCCCNc1cc(-c2c[nH]c3ncccc23)ncn1 | 20 nM | 200 nM |  |
| CCCCCCCCCCCCOc1ccc(NC(=N)N)cc1NC(=N)N | 3160 nM | 5010 nM |  |
| OCCNc1cc(-c2c[nH]c3ncccc23)cc(Cl)n1 | 20 nM | 316 nM |  |
